Data reported in PubChem BioAssay (NCI).
Where “and” joins values, the source holds several entries; their conditions need not be identical. Identical values can stand only once.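 In this assay, cells in 96-well plates receive the compound at five concentrations for 48 hours. Endpoints are linearly interpolated between the surrounding concentrations. Here, GI50 denotes the concentration required for 50% inhibition of growth. TGI denotes the concentration required for complete inhibition of growth.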

Assays:
Test in all cases: NCI tumour cell line growth inhibition, 48 h
EKVX NSCLC = tested on: EKVX NSCLC
TK-10 renal = tested on: TK-10 renal
NCI-H522 lung = tested on: NCI-H522 lung
HCC-2998 colon = tested on: HCC-2998 colon
A498 renal = tested on: A498 renal
SF-268 CNS = tested on: SF-268 CNS
MALME-3M melanoma = tested on: MALME-3M melanoma
KM12 colon = tested on: KM12 colon
SNB-19 CNS = tested on: SNB-19 CNS
HT29 colon = tested on: HT29 colon

Structure (SMILES) | GI50 (EKVX NSCLC) [µM] | TGI (EKVX NSCLC) [µM] | GI50 (TK-10 renal) [µM] | TGI (TK-10 renal) [µM] | GI50 (NCI-H522 lung) | TGI (NCI-H522 lung) | GI50 (HCC-2998 colon) | TGI (HCC-2998 colon) | GI50 (A498 renal) [µM] | TGI (A498 renal) | GI50 (SF-268 CNS) | TGI (SF-268 CNS) | GI50 (MALME-3M melanoma) | TGI (MALME-3M melanoma) | GI50 (KM12 colon) | TGI (KM12 colon) | GI50 (SNB-19 CNS) | TGI (SNB-19 CNS) | GI50 (HT29 colon) | TGI (HT29 colon)
O=C(CCN1CCCC1)Nc1ccc2c(Nc3ccc(F)cc3)c3ccccc3nc2c1 | 1.89 | 4.69 | 1.66 | 3.97 | 1.31 µM | 3.25 µM | 1.16 µM | 2.52 µM | 1.03 | 4.89 µM | 1.19 µM | 2.82 µM | 1.57 µM | 2.99 µM | 1.48 µM | 4.11 µM | 0.836 µM | 3.53 µM | 0.734 µM | 3.72 µM
Cn1c(=O)nc2n(-c3ccc(Br)cc3)c3ccccc3nc-2c1=O |  | 7.3 |  | 32.8 |  | 18.4 µM |  | 10.8 µM |  | 26.9 µM |  | 31 µM |  | 12.7 µM |  | 36.8 µM |  | 9.3 µM |  | 7.44 µM
Nc1n[n+]([O-])c2ccc(Cl)cc2[n+]1[O-] |  | 80.1 |  | > 100 |  | 38.2 µM |  | 55.5 µM |  | 96.6 µM |  | > 100 µM |  | 59 µM |  | 32.6 µM |  | > 100 µM |  | 77 µM
CN(C)Cc1ccc(NC(=O)c2cncc(C#Cc3cnc(N)c4ncccc34)c2)cc1C(F)(F)F | 1.71 | 3.36 | 1.81 | 3.31 | 1.93 µM | 4.07 µM | 1.62 µM | 3.16 µM | 1.5 | 4.63 µM | 1.66 µM | 3.2 µM | 0.104 µM | 0.956 µM | 0.0759 µM | 1.4 µM | 1.89 µM | 3.5 µM | 0.133 µM | 1.86 µM
Cc1nc(-n2nc(-c3ccccc3)cc2-c2ccccc2)sc1C(=O)CC(=O)C(=O)Nc1ccc(Cl)c(Cl)c1 |  | > 100 |  | > 100 |  | > 100 µM |  | > 100 µM |  | > 100 µM |  | > 100 µM |  | > 100 µM |  | > 100 µM |  | > 100 µM |  | > 100 µM
O=C(O)c1cccc([As]=[As]c2cccc(C(=O)O)c2)c1 (stereo not drawn) |  | > 100 |  | 57.1 |  | 35.7 µM |  | > 100 µM |  | 75.7 µM |  | 72.7 µM |  | 43.9 µM |  | > 100 µM |  | > 100 µM |  | > 100 µM
NC(CSC(c1ccccc1)(c1ccccc1)c1ccccc1)C(=O)O (stereo not drawn) | 3.24 | 16 | 6.22 | 83.5 | 0.524 µM and 0.413 µM | 2.2 µM and 7.13 µM and 4.28 µM | 2.52 µM and 2.64 µM | 7.4 µM and 10.8 µM and 23.9 µM | 0.493 | 51.9 µM and 43 µM | 4.35 µM and 1.71 µM | 63.3 µM and 85.7 µM | 1.33 µM and 5.62 µM | 49.2 µM and 39.2 µM and > 100 µM | 5.15 µM and 2.35 µM | 96.3 µM and 24 µM | 2.26 µM and 5.8 µM | 63.9 µM and > 100 µM | 3.71 µM and 3.28 µM | 27.3 µM and 14.6 µM
O=C(CSSCC(=O)c1ccc(Cl)cc1)c1ccc(Cl)cc1 | 9.8 | > 100 | 3.83 | 13.8 | 3.56 µM | 15.3 µM | 8.56 µM | 22.2 µM | 9.77 | 23 µM | 4.3 µM | 64.7 µM | 3.19 µM | 17 µM | 3.82 µM | 24.4 µM | 4.94 µM | 40.3 µM | 3.42 µM | 17 µM
CN(C)S(=O)(=O)c1cccc(C(=O)Nc2nc(-c3ccc(F)c(F)c3)cs2)c1 | 4 | > 76.2 | 18.1 | > 100 | 5.71 µM | > 100 µM | 58.9 µM | > 100 µM | 16.9 | > 100 µM | 13.9 µM | > 100 µM | 18.6 µM | 99.4 µM | 24.2 µM | > 100 µM | 35.4 µM | > 100 µM | 14 µM | > 100 µM
O=S(=O)(F)Cc1ccccc1 |  | > 100 |  | > 100 |  | > 100 µM |  | > 100 µM |  | > 100 µM |  | > 100 µM |  | 70 µM |  | > 100 µM |  | > 100 µM |  | > 100 µM
O=C1NC(c2ccccc2)(c2ccccc2)C(=O)N1CCCCCCN1C(=O)NC(c2ccccc2)(c2ccccc2)C1=O |  | > 100 |  | 77 |  | 84.2 µM |  | > 100 µM |  | > 100 µM |  | > 100 µM |  | 85.2 µM |  | > 100 µM |  | 72.1 µM |  | > 100 µM
O=C1c2ccccc2C(=O)N1c1ccc(Cc2ccc(N3C(=O)c4ccccc4C3=O)cc2)cc1 |  | > 100 |  | > 100 |  | > 100 µM |  | > 100 µM |  | > 100 µM |  | > 100 µM |  | > 100 µM |  | > 100 µM |  | > 100 µM |  | > 100 µM
CNC(=O)[C@H](Cc1c[nH]c2ccccc12)NC(=O)[C@@H](CC(=O)NO)CC(C)C | > 25 | > 25 | > 25 | > 25 | > 25 µM | > 25 µM | > 25 µM | > 25 µM | > 25 | > 25 µM | > 25 µM | > 25 µM | > 25 µM | > 25 µM | > 25 µM | > 25 µM | > 25 µM | > 25 µM | > 25 µM | > 25 µM
CCN(Cc1ccc(Cl)c(Cl)c1)c1ccc2nc(N)nc(N)c2c1C |  | 2.82 | 0.0753 | 1.91 | 0.0378 µM | 1.82 µM | 0.039 µM | 1.24 µM | 0.785 | 3.63 µM | 0.0351 µM | 1.69 µM | 1.17 µM | 2.6 µM | 0.048 µM | 1.67 µM | 0.0141 µM | 1.51 µM | < 0.01 µM | 1.27 µM
CCN(Cc1cc(Cl)cc(C)c1O)Cc1c(O)ccc2ccccc12 |  | 32.8 |  | 31 |  | 31.8 µM |  | 32.7 µM |  | 33.1 µM |  | 34.8 µM |  | 29.8 µM |  | 33 µM |  | 40.9 µM |  | 28.1 µM
CCOC(=O)c1ccc(N=Cc2ccc(N(CCC#N)S(=O)(=O)c3ccccc3)cc2C)cc1 |  | > 100 |  | > 100 |  | > 100 µM |  | 58.1 µM |  | > 100 µM |  | > 100 µM |  | > 100 µM |  | > 100 µM |  | > 100 µM |  | > 100 µM
O=NNc1ccc(-c2ccccc2)cn1 |  | > 51.2 |  | 69 |  | 49.3 µM |  | > 76.4 µM |  | 32.7 µM |  | 29.2 µM |  | 49.8 µM |  | > 82.1 µM |  | > 69 µM |  | 99.6 µM
C=C1C(=O)OC2CC1C(OC(=O)/C=C/c1ccccc1)C/C(C)=C/CC/C(C)=C/CCC2(C)O (stereo not drawn) |  | 3.66 |  | 3.17 |  | 1.63 µM |  | 3.12 µM |  | 3.68 µM |  | 3.81 µM |  | 4.02 µM |  | 3.41 µM |  | 3.51 µM |  | 2.99 µM
O=C(O)CCC(O)=C1S(=O)(=O)OCCOS1(=O)=O |  | > 100 |  | > 100 |  | > 100 µM |  | > 100 µM |  | > 100 µM |  | > 100 µM |  | > 100 µM |  | > 100 µM |  | > 100 µM |  | > 100 µM
COc1ccc(CCN2CCCn3c2nc2ccccc2c3=O)cc1 | 0.97 | > 100 |  | > 100 | 0.035 µM | 1.14 µM | 0.362 µM | > 100 µM | 0.0296 | 0.814 µM | 1.16 µM | > 100 µM | 0.0538 µM | > 100 µM | 0.0445 µM | > 20.5 µM | 0.629 µM | > 100 µM | 0.0365 µM | > 28.4 µM
COc1ccc2c(=O)c(-c3cc(OC)c(OC)cc3OC)coc2c1 |  | > 100 |  | > 100 |  | 5.44 µM |  | > 63.9 µM |  | > 100 µM |  | > 100 µM |  | > 100 µM |  | > 100 µM |  | > 100 µM |  | > 38.3 µM
